From patent US20240109893A1, “PREPARATION AND APPLICATION METHOD OF HETEROCYCLIC COMPOUNDS AS KRAS INHIBITOR” (SHANGHAI KECHOW PHARMA, INC., priority 2020, published 2024)

System: H358 cells
Test: Cell activity experiment: activity test of H358 cells (MTT, 5 days)
Format: cell-based
Details: 5 days incubation, absorbance 492 nm
Protocol: Example: Cell Activity Experiment
1. Cells: H358 purchased from Shanghai EK-Bioscience Biotechnology Co., Ltd.
2. Reagents: RPMI 1640 medium, Tryple, MTT (5 mg/mL), DMSO, and DPBS.
3. Instruments: an incubator at 37° C. and 5% CO2, a UTRAO microplate reader, a biosafety cabinet, a cell counting plate, and an Optec optical microscope.
4. Experimental consumables: 96-well plate Item No.: 3599, and 96-well round-bottomed dispensing plate.
Experimental Steps of Activity Test of H358 Cells:
1. Plating: Cells in the logarithmic growth phase were digested with Tryple and terminated with a fresh medium, and the cells were counted; and the cell concentration was adjusted to 55555 cells/mL with a fresh medium, wherein 90 μL was added to each well, and those on edges were filled with sterile DPBS.
2. The plate was incubated in the incubator at 37° C. and 5% CO2 for 24 h, so that the cells cover the bottom of the well by about 50%.
3. Drug preparation for experimental group: The drug was dissolved in DMSO to prepare a 20 mmol/L stock solution; the stock solution was further diluted with DMSO to 2 mmol/L, which was serially 3-fold diluted to form an […]-concentration gradient, resulting in a 200× serial compound solution; 10 μL of the serial compound solution was taken and added to 190 μLμL of RPMI1640 medium to obtain a 10× serial compound solution; and 10 μL of the 10× compound solution was taken and added to 90 μL 96-well cell culture plate, with three replicates per grade. The concentration gradient of the compound in the 96-well cell culture plate was […], 1.524158 nM, 4.572474 nM, 13.717420 nM, 41.152260 nM, 123.456800 nM, 370.370400 nM, 1111.111000 nM, 3333.333000 nM, and 10000.000000 nM, with 100 μL per well, and the final concentration of DMSO was 0.5%.
The control group contained the same volume of solvent as the experimental group and was diluted with a complete medium, with 100 μL per well.
4. Incubation was carried out for 5 days in an incubator with 5% CO2 at 37° C.
5. After 5 days, 10 μL of an MTT solution (5 mg/mL) was added to each well, and the culture was continued for 4 h.
6. The culture was terminated, and the culture solution was carefully sucked out of the well.
7. 150 μL of dimethyl sulfoxide (DMSO) was added to each of the null wells in the experimental group and the control group; and after shaking at a medium speed for 10 s, the crystal was fully dissolved, and the optical absorbance value thereof was measured at a wavelength of 492 nm.

Row | Structure (SMILES) | IC50 (Homo sapiens, NCI-H358, 120 h) [nM] | IC50 [nM]
1 | C=CC(=O)N1CCN(c2nc(OC[C@@H]3CCCN3C)nc3c(F)c(-c4cccc5c4SCCC5)ncc23)C[C@@H]1CC#N [Example 49, 2-((S)-1-acryloyl-4-(8-fluoro-2-(((S)-1-methylpyrrolidin-2-yl)methoxy)-7-(thiochroman-8-yl)pyridino[4,3-d]pyrimidin-4-yl)piperazin-2-yl)acetonitrile] | 57 | –
2 | C=C(F)C(=O)N1CCN(c2nc(OC[C@@]34CCCN3C[C@H](F)C4)nc3c(F)c(-c4cccc5c4CCCC5)ncc23)C[C@@H]1CC#N [Example 8, 2-((S)-4-(8-fluoro-2-(((2R,7aS)-2-fluorotetrahydro-1H-pyrrolizin-7a(5H)-yl)methoxy)-7-(5,6,7,8-tetrahydronaphthalen-1-yl)pyridino[4,3-d]pyrimidin-4-yl)-1-(2-fluoroacryloyl)piperazin-2-yl)acetonitrile] | 0.64 | –
3 | C=CC(=O)N1CC[C@@H]2[C@H]1CN2c1nc(OC[C@@]23CCCN2C[C@H](F)C3)nc2c(F)c(-c3ccc(F)c4c3CCCC4)ncc12 [Example 31] | 8 | –
4 | C=C(F)C(=O)N1CCN(c2nc(OCC34CCCN3CCC4)nc3c(F)c(-c4cccc5c4[C@H]4C[C@H]4C5)ncc23)C[C@@H]1CC#N [Example 64, 2-((S)-4-(8-fluoro-2-((tetrahydro-1H-pyrrolizin-7a(5H)-yl)methoxy)-7-((1aS,6aS)-1,1a,6,6a-tetrahydrocyclopropa[a]inden-2-yl)pyridino[4,3-d]pyrimidin-4-yl)-1-(2-fluoroacryloyl)piperazin-2-yl)acetonitrile] | 10 | –
5 | C=C(F)C(=O)N1CCN(c2nc(OC[C@@H]3CCCN3C)nc3c(F)c(-c4cccc5c4[C@H]4C[C@H]4C5)ncc23)C[C@@H]1CC#N [Example 57, 2-((S)-4-(8-fluoro-2-(((S)-1-methylpyrrolidin-2-yl)methoxy)-7-((1aS,6aS)-1,1a,6,6a-tetrahydrocyclopropa[a]inden-2-yl)pyridino[4,3-d]pyrimidin-4-yl)-1-(2-fluoroacryloyl)piperazin-2-yl)acetonitrile] | 150 | –
6 | C=CC(=O)N1CCN(c2nc(OCC34CCCN3CCC4)nc3cc(-c4cccc5ccc(F)c(Cl)c45)ccc23)C[C@@H]1CC#N [Example 97, (S)-2-(1-acryloyl-4-(7-(8-chloro-7-fluoronaphthalen-1-yl)-2-((tetrahydro-1H-pyrrolizin-7a(5H)-yl)methoxy)quinazolin-4-yl)piperazin-2-yl)acetonitrile] | 0.49 | –
7 | C=CC(=O)N1CCN(c2nc(OCC34CCCN3C[C@H](F)C4)nc3cc(-c4cncc5c4CCCC5)ccc23)C[C@@H]1CC#N (some centres unmarked) [Example 148] | 5 | –
8 | C=CC(=O)N1CCN(c2nc(OCC34CCCN3CCC4)nc3cc(-c4cccc5c4CCCC5)ccc23)C[C@@H]1CC#N [Example 114, (S)-2-(1-acryloyl-4-(2-((tetrahydro-1H-pyrrolizin-7a(5H)-yl)methoxy)-7-(5,6,7,8-tetrahydronaphthalen-1-yl)quinazolin-4-yl)piperazin-2-yl)acetonitrile] | 20 | –
9 | C=CC(=O)N1CCN(c2c(C#N)c(OC[C@@H]3CCCN3C)nc3cc(-c4cccc5c4CCCC5)c(Cl)cc23)C[C@@H]1CC#N [Example 622] | – | 231
10 | C=C(F)C(=O)N1CCN(c2nc(OCC34CCCN3CCC4)nc3c(F)c(-c4cccc5c4C4CC4C5)ncc23)C[C@@H]1CC#N (stereo partly drawn) [Example 62, 2-((2S)-4-(8-fluoro-2-((tetrahydro-1H-pyrrolizin-7a(5H)-yl)methoxy)-7-(1,1a,6,6a-tetrahydrocyclopropa[a]inden-2-yl)pyridino[4,3-d]pyrimidin-4-yl)-1-(2-fluoroacryloyl)piperazin-2-yl)acetonitrile] | 8 | –
11 | C=CC(=O)N1CCN(C2=C(C#N)C(OC[C@@H]3C[C@@H](F)CN3C)=NC3C=C(c4cccc5ccc(F)c(Cl)c45)C=CC23)C[C@@H]1CC#N (some centres unmarked) [Example 625] | 850 | –
12 | C=CC(=O)N1CCN(c2nc(OC[C@@H]3CCCN3C)nc3c(F)c(N4CCCc5cc(F)ccc54)ccc23)C[C@@H]1CC#N [Example 616] | 473 | –
13 | C=CC(=O)N1CCN(c2nc(OC[C@@H]3CCCN3C)nc3c(F)c(-c4cccc5c4[C@H]4C[C@H]4C5)ncc23)C[C@@H]1CC#N [Example 56, 2-((S)-1-acryloyl-4-(8-fluoro-2-(((S)-1-methylpyrrolidin-2-yl)methoxy)-7-((1aS,6aS)-1,1a,6,6a-tetrahydrocyclopropa[a]inden-2-yl)pyridino[4,3-d]pyrimidin-4-yl)piperazin-2-yl)acetonitrile] | 2.2 | –
14 | C=CC(=O)N1CCN(c2nc(OC[C@@]34CCCN3C[C@H](F)C4)nc3c(OC4CC4)c(-c4cccc5ccc(F)c(Cl)c45)c(Cl)cc23)C[C@@H]1CC#N [Example 920, 2-((2S)-1-acryloyl-4-(6-chloro-7-(8-chloro-7-fluoronaphthalen-1-yl)-8-cyclopropoxy-2-((2R,7aS)-2-fluorotetrahydro-1H-pyrrolizin-7a(5H-yl)methoxy)quinazolin-4-yl)piperazin-2-yl)acetonitrile] | 31 | –
15 | C=CC(=O)N1CCN(c2nc(OCC3(CN4CCCC4)CC3)nc3c(F)c(-c4cccc5cccc(Cl)c45)ccc23)C[C@@H]1CC#N [Example 855, (S)-2-(1-acryloyl-4-(7-(8-chloronaphthalen-1-yl)-8-fluoro-2-((1-(pyrrolidin-1-ylmethyl)cyclopropyl)methoxy)quinazolin-4-yl)piperazin-2-yl)acetonitrile] | 5.1 | –
16 | C=C(F)C(=O)N1CCN(c2nc(OC[C@@H]3CCCN3C)nc3c(F)c(-c4cccc5c4CCCC5)ncc23)C[C@@H]1CC#N [Example 4, 2-((S)-4-(8-fluoro-2-(((S)-1-methylpyrrolidin-2-yl)methoxy)-7-(5,6,7,8-tetrahydronaphthalen-1-yl)pyridino[4,3-d]pyrimidin-4-yl)-1-(2-fluoroacryloyl)piperazin-2-yl)acetonitrile] | 70 | –
17 | C=C(F)C(=O)N1CCN(c2nc(OC[C@@]34CCCN3C[C@H](F)C4)nc3c(F)c(-c4cncc5cccc(Cl)c45)ccc23)C[C@@H]1CC#N [Example 165] | 4 | –
18 | C=CC(=O)N1CCN(c2nc(OCC34CCCN3CCC4)nc3cc(-c4cncc5cccc(Cl)c45)ccc23)C[C@@H]1CC#N [Example 130, (S)-2-(1-acryloyl-4-(7-(5-chloroisoquinolin-4-yl)-2-((tetrahydro-1H-pyrrolizin-7a(5H)-yl)methoxy)quinazolin-4-yl)piperazin-2-yl)acetonitrile] | 8 | –
19 | C=CC(=O)N1CC[C@@H]2[C@H]1CN2c1nc(OC[C@@H]2C[C@@H](F)CN2C)nc2c(F)c(-c3cncc4c3CCCC4)ncc12 [Example 43] | 16 | –
20 | C=C(F)C(=O)N1CCN(c2nc(OC[C@@H]3CCCN3C)nc3c(F)c(-c4cccc5c4CC4CC54)ccc23)C[C@@H]1CC#N (some centres unmarked) [Example 872] | – | 8.4
21 | C=C(F)C(=O)N1CCN(c2nc(OC[C@@H]3CCCN3C)nc3c(F)c(-c4cccc5c4[C@@H]4C[C@@H]4C5)ncc23)C[C@@H]1CC#N [Example 59, 2-((S)-4-(8-fluoro-2-(((S)-1-methylpyrrolidin-2-yl)methoxy)-7-((1aR,6aR)-1,1a,6,6a-tetrahydrocyclopropa[a]inden-2-yl)pyridino[4,3-d]pyrimidin-4-yl)-1-(2-fluoroacryloyl)piperazin-2-yl)acetonitrile] | 140 | –
22 | C=C(F)C(=O)N1CCN(c2nc(OC[C@@]34CCCN3C[C@H](F)C4)nc3c(OC4CC4)c(-c4cccc5c4CC4CC54)c(Cl)cc23)C[C@@H]1CC#N (single isomer, unassigned) [Example 918] | – | 40
23 | C=CC(=O)N1CCN(c2nc(OC[C@@H]3C[C@@H](F)CN3C)nc3cc(-c4cncc5c4CCCC5)ccc23)C[C@@H]1CC#N [Example 144] | 25 | –
24 | C=C(F)C(=O)N1CCN(c2nc(OC[C@@H]3C[C@@H](F)CN3C)nc3c(F)c(-c4cccc5c4CCCC5)ncc23)C[C@@H]1CC#N [Example 6] | 90 | –
25 | C=CC(=O)N1CCN(c2nc(OC[C@@H]3C[C@@H](F)CN3C)nc3cc(-c4cccc5c4CCCC5)ccc23)C[C@@H]1CC#N [Example 112] | 38 | –
26 | C=CC(=O)N1CCN(c2nc(OC[C@@H]3CCCN3C)nc3c(F)c(-c4cccc5cccc(Cl)c45)c(F)cc23)C[C@@H]1CC#N [Example 430, 2-((S)-1-acryloyl-4-(6,8-difluoro-7-(8-chloronaphthalen-1-yl)-2-(((S)-1-methylpyrrolidin-2-yl)methoxy)quinazolin-4-yl)piperazin-2-yl)acetonitrile] | 140 | –
